Series [1] in a line: Profiling of absorbed constituents and metabolites in mice plasma after oral administration of RA (UFLC-DAD-Q-TOF-MS/MS). The following applies: oral RA extract 6 g/kg BW; cyclophosphamide-induced immunosuppressed Balb/c mice; plasma sampled 0.25-36 h; '-' = not detected.
Procedure: The peaks that appeared at the same position in the total ion chromatograms of both the dosed mice bio-samples and the RA extract, but not in the chromatograms of the controlled mice bio-samples, were regarded as absorbed constituents [22].
Following randomization into study groups, mice (6/group/male) received intraperitoneal injection once daily of cyclophosphamide (i.p. 80 mg/kg BW) for 6 days. Additionally, the control group was injected intraperitoneally with sterile physiological saline. […] Plasma was harvested by centrifugation at 3000× g for 10 min and then kept frozen at −70 °C until analysis.
After being vortexed for 1 min, the sample was centrifuged at 13,000× g at 4 °C for 30 min. The supernate was transferred into a fresh tube and evaporated with nitrogen. Then, the residue was dissolved in a 60-μL mobile phase with vortex mixing for 3 min and centrifuged at 13,000× g for 30 min. Finally, 10 μL of the supernatant were injected into the UFLC/DAD/Q-TOF-MS/MS system.
The multiple constituents in RA and the absorbed compounds in mice plasma were identified by the ultra-fast liquid chromatography/diode-array detector/quadrupole time-of-flight tandem mass spectrometry (UFLC/DAD/Q-TOF-MS/MS) method.
A short description of series [2]: Pharmacokinetics of five main constituents in immunosuppressive mice plasma after oral administration of RA (HPLC-MS/MS). The following applies: immunosuppressive Balb/c mice plasma; for double-peak phenomenon, time of second peak: after oral administration of RA; for AUC(0-t) / AUC(0-inf) / Cmax / half-life / Tmax: male, mouse, oral RA extract 6 g/kg BW; for AUC(0-t): 0-36 h, read-out: AUC(0–t); for AUC(0-inf): read-out: AUC(0–∞); for Cmax: read-out: Cmax; for half-life: read-out: t1/2z (converted); for Tmax: read-out: tmax. Format: in vivo, Balb/c mice. The procedure: The maximum plasma concentration (Cmax) and the time of maximum plasma concentration (tmax) were obtained from the observed data (Table 3). The plasma concentration-time profiles for calycosin-7-O-glucoside, ononin, calycosin, formononetin and astragaloside IV are shown in Figure 4.
To quantify calycosin-7-O-glucoside, ononin, calycosin, formononetin and astragaloside IV in mice, a 10-μL IS solution was added into 50 μL of plasma and mixed for 30 s. Then, 1 mL ethyl acetate was added to the tube and vortexed for 3 min. […] Ten microliters of the supernatant were injected into the HPLC-MS/MS system.
The quantification was performed by an LC-MS/MS system, which consisted of an Agilent 1200 HPLC series system and an Agilent 6410 triple quadrupole mass spectrometer (Agilent Technol., Santa Clara, CA, USA) equipped with an electrospray ionization source. Samples were separated by a rapid resolution HT C18 column (2.1 mm × 50 mm, 1.8 μm, Agilent Technol.) at 30 °C. The mobile phase consisted of 0.1 formic acid both in methanol (A) and water (B) using a gradient elution program of 25%–50% A (0–5 min) and 50%–90% (5–10 min). The flow rate was 0.2 mL/min, and the injection volume was 10 μL. Detection was performed in the positive ion mode using multiple reaction monitoring (MRM) of the m/z 447.1/285.0 for calycosin-7-O-glucoside, m/z 431.1/269.0 for ononin, m/z 285.0/137.0 for calycosin, m/z 269.0/213.0 for formononetin, m/z 807.4/627.3 for astragaloside IV and m/z 271.1/151.0 for naringenin.

By AUC(0-t) is commonly meant exposure summed from dosing to a finite time, without extrapolation to infinity. One may read the Cmax as the peak of the concentration-time curve. As usually defined, the Tmax is the time at which the peak concentration occurs.

Regarding `COc1ccc(-c2coc3cc(O[C@@H]4O[C@H](CO)[C@@H](O)[C@H](O)[C@H]4O)cc(O)c3c2=O)cc1O` (single isomer, unassigned) [Peak 26, Pratensein-7-O-glucoside], in series [1], the “Source: Dosed Plasma (time points at which the compound was detected)” value (“Source: Dosed Plasma” below) lay in the range of 0.25 to 8 h.
Consider `CC(C)(O[C@@H]1O[C@H](CO)[C@@H](O)[C@H](O)[C@H]1O)[C@@H]1CC[C@](C)([C@H]2[C@@H](O)C[C@@]3(C)[C@@H]4C[C@H](O)[C@H]5C(C)(C)[C@@H](O[C@@H]6OC[C@@H](O)[C@H](O)[C@H]6O[C@@H]6O[C@H](CO)[C@@H](O)[C@H](O)[C@H]6O)CC[C@@]56C[C@@]46CC[C@]23C)O1` (single isomer, unassigned; peak 40) [Peak 40, Astragaloside V], for which, in series [1], the “Source: Dosed Plasma” value is 0.25 to 24 h.
Same read-out and setting: in the case of `CC(CCC(O)C(C)(C)O)C1C(O)CC2(C)C3CC(OC4OC(CO)C(O)C(O)C4O)C4C(C)(C)C(OC5OCC(O)C(O)C5O)CCC45CC35CCC12C` (single isomer, unassigned) [Peak 43, Cyclocanthoside E] it was 3 h.
In the case of `COc1ccc(-c2coc3cc(O[C@@H]4O[C@H](CO)[C@@H](O)[C@H](O)[C@H]4O)ccc3c2=O)cc1` (single isomer, unassigned) [Peak 33, Ononin], in series [2], the “double-peak phenomenon, time of second peak” value was found to be 4 h; the AUC(0-t) was 228 ± 59.7 ng·h/mL; the AUC(0-inf) came out at 239 ± 47.4 ng·h/mL; the Cmax turned out to be 51.4 ng/mL. In addition, in series [2], the half-life is 118 ± 20.4 min and the Tmax was determined as 1.5 h. Further, the “Source: Dosed Plasma” value in series [1] is 0.25 to 24 h.
For `N[C@@H](Cc1ccc(O)cc1)C(=O)O` (single isomer, unassigned) [Peak 16, Tyrosine], the “Source: Dosed Plasma” value in series [1] fell in the range of 0.25 to 36 h.
The same measure, in the same setting: the figure for `NCCCC(=O)O` [Peak 5, γ-Aminobutyric acid] is 0.25 to 36 h; for `COc1cc(C=O)cc(OC)c1O` [Peak 23, Syringaldehyde] it is 0.25 to 6 h; for `Nc1ncnc2c1ncn2[C@@H]1O[C@H](CO)[C@@H](O)[C@H]1O` (single isomer, unassigned) [Peak 10, Adenine nucleoside] it is 0.25 to 36 h.
As to `COc1ccc(-c2coc3cc(O)ccc3c2=O)cc1O` [Peak 37, Calycosin], in series [2], the “double-peak phenomenon, time of second peak” value turned out to be 6 h; the AUC(0-t) was found to be 136 ± 41.4 ng·h/mL; the AUC(0-inf) stood at 155 ± 37.7 ng·h/mL; the Cmax was 33 ng/mL. Further, in series [2], the half-life was 133 ± 55.2 min and the Tmax is 1.5 h. In addition, the “Source: Dosed Plasma” value in series [1] lay in the range of 0.25 to 24 h.
As for `C[C@@H]1O[C@@H](O[C@H]2[C@H](O[C@H]3[C@H](O[C@H]4CC[C@@]5(C)[C@@H](CC[C@]6(C)[C@@H]5CC=C5[C@@H]7CC(C)(C)C[C@@H](O)[C@]7(C)CC[C@]56C)[C@@]4(C)CO)O[C@H](C(=O)O)[C@@H](O)[C@@H]3O)OC[C@@H](O)[C@@H]2O)[C@H](O)[C@H](O)[C@H]1O` (single isomer, unassigned; peak 48) [Peak 48, Astragaloside VIII], the “Source: Dosed Plasma” value in series [1] was 0.25 to 24 h.
On the same count and under the same terms, in the case of `N[C@@H](Cc1ccccc1)C(=O)O` (single isomer, unassigned) [Peak 11, Phenylalanine] it was 0.25 to 36 h; in that of Sulfated formononetin [Peak M6], 0.25 to 8 h; in that of `O=C(O)CCCCCCCC(=O)O` [Peak 32, Azelaic acid], 0.25 to 36 h.
Same read-out and setting: the figure for `COc1ccc(/C=C/C(=O)O)cc1O` [Peak 27, Isoferulic acid] is 0.25 to 36 h; for `COc1ccc(-c2coc3cc(O[C@@H]4O[C@H](COC(C)=O)[C@@H](O)[C@H](O)[C@H]4O)ccc3c2=O)cc1` (single isomer, unassigned) [Peak 38, 6'-O-acetyl ononin] it is 0.25 to 8 h.
The same measure, in the same setting: in the case of `N[C@@H](Cc1c[nH]c2ccccc12)C(=O)O` (single isomer, unassigned) [Peak 14, Tryptophan] it was 0.25 to 36 h; in that of `CC(C)C[C@H](N)C(=O)O` (single isomer, unassigned) [Peak 9, Leucine], 0.25 to 36 h.
Regarding `COc1cc(C(=O)O)cc(OC)c1O` [Peak 20, Syringic acid], the “Source: Dosed Plasma” value in series [1] is 0.25 to 36 h.
On the same count and under the same terms, in the case of `COc1cc(/C=C/C(=O)O)ccc1O` [Peak 25, Ferulic acid] it was 0.25 to 36 h; in that of Sulfated calycosin [Peak M1], 0.25 to 8 h.
The same measure, in the same setting: the figure for `CC(C)(O)[C@@H]1CC[C@](C)([C@H]2[C@@H](O)C[C@@]3(C)[C@@H]4C[C@H](O[C@@H]5O[C@H](CO)[C@@H](O)[C@H](O)[C@H]5O)[C@H]5C(C)(C)[C@@H](O[C@@H]6OC[C@@H](O)[C@H](O)[C@H]6O[C@@H]6O[C@H](CO)[C@@H](O)[C@H](O)[C@H]6O)CC[C@@]56C[C@@]46CC[C@]23C)O1` (single isomer, unassigned; peak 41) [Peak 41, Astragaloside VI] is 0.25 to 24 h.
Same read-out and setting: the figure for `C[C@@H]1O[C@@H](O[C@H]2[C@H](O[C@H]3[C@H](O[C@H]4CC[C@@]5(C)[C@@H](CC[C@]6(C)[C@@H]5CC=C5[C@@H]7CC(C)(C)C[C@@H](O)[C@]7(C)CC[C@]56C)[C@@]4(C)CO)O[C@H](C(=O)O)[C@@H](O)[C@@H]3O)O[C@H](CO)[C@H](O)[C@@H]2O)[C@H](O)[C@H](O)[C@H]1O` (single isomer, unassigned) [Peak 47, Soyasaponin I] is 0.25 to 24 h; for `COc1cc(O)c2c(=O)c(O[C@@H]3O[C@H](CO)[C@@H](O)[C@H](O)[C@H]3O)c(-c3ccc(O[C@@H]4O[C@H](CO)[C@@H](O)[C@H](O)[C@H]4O)cc3)oc2c1` (single isomer, unassigned) [Peak 18, Rhamnocitrin 3,4'-di-O-glucoside] it is 0.25 to 6 h; for Sulfated isomucronulatol [Peak M5] it is 0.25 to 8 h.
Turning to `NC(=O)C[C@H](N)C(=O)O` (single isomer, unassigned) [Peak 2, Asparagine], in series [1], the “Source: Dosed Plasma” value lay in the range of 1 to 36 h.
On the same count and under the same terms, in the case of `COc1ccc2c(c1OC)OC1c3ccc(O[C@@H]4O[C@H](CO)[C@@H](O)[C@H](O)[C@H]4O)cc3OCC21` (single isomer, unassigned) [Peak 34, 9,10-dimethoxypterocarpan-3-O-glucoside] it was 0.25 to 12 h.
The same measure, in the same setting: the figure for `CCCCC=CC=CC(=O)O` (single isomer, unassigned) [Peak 35, 2,4-Nonadienic acid] is 0.25 to 36 h; for `COc1cc(/C=C/CO)cc(OC)c1O[C@@H]1O[C@H](CO)[C@@H](O)[C@H](O)[C@H]1O` (single isomer, unassigned) [Peak 24, Syringin] it is 0.25 to 36 h; for `O=C(O)c1ccc(O)c(O)c1` [Peak 12, Protocatechuic acid] it is 0.25 to 36 h.
On to `COc1cc(O[C@H]2O[C@H](CO)[C@H](O)[C@H](O)[C@H]2O[C@H]2OC[C@@](O)(CO)[C@H]2O)ccc1O` (single isomer, unassigned) [Peak 13, Markhamioside F], for which, in series [1], the “Source: Dosed Plasma” value was in the range of 0.25 to 8 h.
Take `O=c1cc(-c2ccc(O)cc2)oc2cc(O[C@@H]3O[C@H](CO)[C@@H](O)[C@H](O)[C@H]3O)cc(O)c12` (single isomer, unassigned) [Peak 30, Cosmosiin]: in series [1], the “Source: Dosed Plasma” value lay within 0.25 to 36 h.
The same measure, in the same setting: in the case of `C[N+](C)(C)CCO` [Peak 4, Choline] it was 0.25 to 36 h.
The same measure, in the same setting: the figure for `COc1ccc(-c2coc3cc(OC4OC(C(=O)O)C(O)C(O)C4O)ccc3c2=O)cc1` (stereo not drawn) [Peak M3, Glucuronidated formononetin] is 0.25 to 8 h.

Values taken from publication PMC4394464, “Identification and Pharmacokinetics of Multiple Potential Bioactive Constituents after Oral Administration of Radix Astragali on Cyclophosphamide-Induced Immunosuppression in Balb/c Mice” (International Journal of Molecular Sciences, 2015).
